According to patent US6924302B2, “Substituted triazole diamine derivatives as kinase inhibitors” (Ortho McNeil Pharmaceutical, Inc., priority 2000, dated 2005):
pIC50: −log10 of the molar value. One block for each compound: values may come before it.

How the values were obtained:
Assay type in all cases: biochemical
[1] = target: T1, HER2 (human epidermal growth factor receptor-2) (Homo sapiens, UniProt P04626); assay: Kinase Selectivity Assay HER2; details: Table 1; read-out: HER2 IC50
T1 construct: begins at amino acid 676 followed by the remainder of the HER2 cytoplasmic domain; polyhistidine (N)
Method: (§1) Assays to test compound inhibition of other kinases were preformed using methods that measure the amount of phosphorylation of a biotinylated peptide substrate. Biotinylated peptide substrates were selected from the literature as appropriate for the enzyme being evaluated. […] Assay conditions vary slightly for each protein kinase, for example, insulin receptor kinase requires 10 mM MnCl2 for activity and Calmodulin-dependent protein kinase requires calmodulin and 10 mM CaCl2. These assay conditions are known in the art. The reaction mixture was dispensed into the wells of a streptavidin coated Flashplate and 1 μl drug stock in 100% DMSO was added to a 100 μl reaction volume resulting in a final concentration of 1% DMSO on the reaction. Enzyme was diluted in 50 mM Tris-HCl pH=8.0, 0.1% BSA and add to each well. The reaction was incubated for one hour at 30° C. in the presence of compound. After one hour the reaction mix was aspirated from the plate and the plate was washed with PBS containing 100 mM EDTA. The plate was read on a scintillation counter to determine ^33P-γ-ATP incorporated into the immobilized peptide. Test compounds were assayed in duplicate at 8 concentrations [100 uM, 10 uM, 1 uM, 100 nM, 10 nM, 1 nM, 100 pM, 10 pM]. A maximum and minimum signal for the assay was determined on each plate. The IC50 was calculated from the dose response curve of the percent inhibition of the maximum signal in the assay according to the formula [max signal—background/test compound signal—background (100)=% inhibition] by graphing the percent inhibition against the log concentration of test compound. Known inhibitor compounds appropriate for the kinase being assayed were also included on each plate.
(§2) CDK2 in complex with cyclin A is commercially available (Upstate Biotech, Lake Placid, N.Y.). The CDK4 complex was composed of a mouse CDK4 protein and a mouse Cyclin D1 protein (The mouse CDK4 protein was genetically fused to an N-terminal Flag-epitope tag and the mouse Cyclin D1 protein was fused with an N-terminal AU-1 epitope tag. The genes encoding these proteins were transferred to commercially available baculoviral vectors. The recombinant CDK4/D1 complex was then made by co-infecting commercially available insect cells with viruses carrying these two constructs). […] ERK-1 protein (Discontinued from Calbiochem). EGFR (epidermal growth factor receptor) is purified from human A431 cell membranes (Sigma, St. Louis, Mo., Cat.# E3641).

[2] = target: T2, VEGF-R (vascular endothelial growth factor receptor-2) (Rattus norvegicus, UniProt O08775); assay: VEGF-R Screening Assay; details: Table 1; read-out: VEGF-R IC50
T2 construct: polyhistidine (6xHIS) (N)
Method: (§3) 70 μL of the kinase reaction mixture was dispensed into the well of a streptavidin coated FlashPlate™ (Cat. # SMP103, NEN, Boston, Mass.). Then 1 μL of test compound stock in 100% DMSO was added to the wells resulting in a final concentration of 1% DMSO in the reaction with a 100 μL final reaction volume. Next, soluble rat tyrosine kinase containing an N-terminal 6×HIS tag was diluted in 50 mM Tris-HCl pH=8.0, 0.1% BSA at a concentration of 5 ng per μL and 30 μL (150 ng enzyme per test well) was added to each well to initiate the reaction. The reaction was incubated for one hour at 30° C. At the end of the 1-hour incubation, the reaction was terminated by aspirating the reaction mixture from the plate and washing the wells twice with PBS containing 100 mM EDTA. The PLC1 biotinylated peptide substrate became immobilized on the Flashplate™ and the incorporation of ^33P-γ-ATP was measured by reading the plate on a scintillation counter. Inhibition of the enzymatic activity of the VEGF-R was measured by observing a reduced amount of ^33P-γ-ATP incorporated into the immobilized peptide.
as §1, §2

CDK1:Cyclin-B = target: T3, CDK1:Cyclin-B (Homo sapiens, UniProt P06493); assay: CDK1 Screening Assay; details: Table 1; read-out: CDK1 IC50
T3 construct: purchased New England Biolabs 6020; host or cells: insect cells
Method: as §3, with “100 μl” for “100 μL”, “Next, CDK1:Cyclin-B protein” for “Next, soluble rat tyrosine kinase containing an N-terminal 6×HIS tag”, “of 1” for “of 5”, “30 μl (30” for “30 μL (150”, “The histone-H1” for “The PLC1”, “of CDK1” for “of the VEGF-R”
Assays to test compound inhibition of other kinases were preformed using methods that measure the amount of phosphorylation of a biotinylated peptide substrate. Biotinylated peptide substrates were selected from the literature as appropriate for the enzyme being evaluated. […] Assay conditions vary slightly for each protein kinase, for example, insulin receptor kinase requires 10 mM MnCl2 for activity and Calmodulin-dependent protein kinase requires calmodulin and 10 mM CaCl2. These assay conditions are known in the art. The reaction mixture was dispensed into the wells of a streptavidin coated Flashplate and 1 μl drug stock in 100% DMSO was added to a 100 μl reaction volume resulting in a final concentration of 1% DMSO on the reaction. Enzyme was diluted in 50 mM Tris-HCl pH=8.0, 0.1% BSA and add to each well. The reaction was incubated for one hour at 30° C. in the presence of compound. After one hour the reaction mix was aspirated from the plate and the plate was washed with PBS containing 100 mM EDTA. The plate was read on a scintillation counter to determine ^33P-γ-ATP incorporated into the immobilized peptide. Test compounds were assayed in duplicate at 8 concentrations [100 uM, 10 uM, 1 uM, 100 nM, 10 nM, 1 nM, 100 pM, 10 pM]. A maximum and minimum signal for the assay was determined on each plate. The IC50 was calculated from the dose response curve of the percent inhibition of the maximum signal in the assay according to the formula [max signal—background/test compound signal—background (100)=% inhibition] by graphing the percent inhibition against the log concentration of test compound. Known inhibitor compounds appropriate for the kinase being assayed were also included on each plate. […]

T1 sequence (P04626 676-1255 limits assumed): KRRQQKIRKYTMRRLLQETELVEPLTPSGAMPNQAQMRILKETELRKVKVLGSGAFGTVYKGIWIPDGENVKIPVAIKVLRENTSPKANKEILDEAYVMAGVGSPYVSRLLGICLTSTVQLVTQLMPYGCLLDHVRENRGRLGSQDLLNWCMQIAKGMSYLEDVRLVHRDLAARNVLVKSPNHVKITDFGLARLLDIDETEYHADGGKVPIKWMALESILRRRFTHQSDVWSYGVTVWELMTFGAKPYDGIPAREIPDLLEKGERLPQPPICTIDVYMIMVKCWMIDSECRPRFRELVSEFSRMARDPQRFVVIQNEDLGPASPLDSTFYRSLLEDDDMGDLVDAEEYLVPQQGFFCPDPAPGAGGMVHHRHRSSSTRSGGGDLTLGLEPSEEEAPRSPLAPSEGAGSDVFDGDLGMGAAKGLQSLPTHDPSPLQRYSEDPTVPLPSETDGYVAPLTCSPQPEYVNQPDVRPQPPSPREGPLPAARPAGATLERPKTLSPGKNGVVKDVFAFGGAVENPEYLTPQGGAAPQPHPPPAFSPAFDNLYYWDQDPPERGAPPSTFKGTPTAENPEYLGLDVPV
T3 sequence (P06493 whole entry): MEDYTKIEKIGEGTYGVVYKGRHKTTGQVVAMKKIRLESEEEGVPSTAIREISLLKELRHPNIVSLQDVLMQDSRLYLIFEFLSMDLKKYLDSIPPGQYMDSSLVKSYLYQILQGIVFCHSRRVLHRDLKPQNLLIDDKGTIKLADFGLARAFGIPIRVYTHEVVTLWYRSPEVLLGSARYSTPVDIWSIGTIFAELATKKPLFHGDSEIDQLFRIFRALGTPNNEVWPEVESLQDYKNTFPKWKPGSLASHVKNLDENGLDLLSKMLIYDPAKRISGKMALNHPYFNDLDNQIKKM
T3 sequence (P14635 whole entry partner): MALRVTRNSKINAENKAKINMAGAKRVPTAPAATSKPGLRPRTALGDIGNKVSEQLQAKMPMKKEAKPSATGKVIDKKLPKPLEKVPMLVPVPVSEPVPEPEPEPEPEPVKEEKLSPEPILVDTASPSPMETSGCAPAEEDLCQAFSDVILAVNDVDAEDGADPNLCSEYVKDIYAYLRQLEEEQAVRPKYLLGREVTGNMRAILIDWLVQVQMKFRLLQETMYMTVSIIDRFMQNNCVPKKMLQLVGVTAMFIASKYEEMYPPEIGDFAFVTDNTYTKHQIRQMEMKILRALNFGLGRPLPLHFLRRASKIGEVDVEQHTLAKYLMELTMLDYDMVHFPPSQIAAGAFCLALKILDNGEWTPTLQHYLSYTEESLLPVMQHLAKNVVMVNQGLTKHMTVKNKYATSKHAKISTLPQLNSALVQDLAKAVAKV
T2 sequence (O08775 786-1343): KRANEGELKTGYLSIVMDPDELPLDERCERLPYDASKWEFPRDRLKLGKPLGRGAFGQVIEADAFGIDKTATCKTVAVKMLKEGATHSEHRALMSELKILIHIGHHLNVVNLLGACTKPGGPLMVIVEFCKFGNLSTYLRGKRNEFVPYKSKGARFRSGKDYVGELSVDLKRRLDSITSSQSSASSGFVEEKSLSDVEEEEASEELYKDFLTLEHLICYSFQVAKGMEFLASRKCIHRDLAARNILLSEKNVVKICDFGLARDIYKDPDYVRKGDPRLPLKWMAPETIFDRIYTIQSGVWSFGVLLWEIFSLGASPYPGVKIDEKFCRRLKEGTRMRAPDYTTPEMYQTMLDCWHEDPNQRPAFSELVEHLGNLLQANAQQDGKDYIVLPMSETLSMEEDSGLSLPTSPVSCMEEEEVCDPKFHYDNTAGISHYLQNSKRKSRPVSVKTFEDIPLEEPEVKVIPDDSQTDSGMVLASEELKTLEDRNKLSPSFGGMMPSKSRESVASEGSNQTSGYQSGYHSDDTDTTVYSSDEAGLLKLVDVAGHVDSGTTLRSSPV

SMILES: Cc1ccsc1C(=O)n1nc(Nc2ccc(-n3cnnc3)cc2)nc1N [Cpd 102, 1-[(3-methyl-2-thienyl)carbonyl]-N^3-[4-(4H-1,2,4-triazol-4-yl)phenyl]-1H-1,2,4-triazole-3,5-diamine]
- pIC50 [1]: 5.65
- pIC50 [2]: 5.96
- pIC50 (CDK1:Cyclin-B): 5.63

SMILES: Nc1nc(Nc2ccc(S(=O)(=O)O)cc2)nn1C(=O)c1c(F)cccc1F [Cpd 59, 4-[[5-amino-1-(2,6-difluorobenzoyl)-1H-1,2,4-triazol-3-yl]amino]-benzenesulfonic Acid]
- pIC50 [1]: 5.11
- pIC50 [2]: 6.04
- pIC50 (CDK1:Cyclin-B): 5.81

SMILES: Nc1nc(Nc2ccc(S(N)(=O)=O)cc2)nn1C(=O)c1ccco1 [Cpd 25, 4-[[5-amino-1-(2-furanylcarbonyl)-1H-1,2,4-triazol-3-yl]amino]-benzenesulfonamide]
- pIC50 [2]: 7.19
- pIC50 (CDK1:Cyclin-B): 7.71

SMILES: Nc1nc(Nc2ccc(S(N)(=O)=O)cc2)nn1C(=O)c1ccccc1F [Cpd 4, 4-[[5-amino-1-(2-fluorobenzoyl)-1H-1,2,4-triazol-3-yl]amino]-benzenesulfonamide]
- pIC50 [2]: 6.41
- pIC50 (CDK1:Cyclin-B): 7.65

SMILES: Nc1nc(Nc2ccc(S(N)(=O)=O)cc2)nn1S(=O)(=O)c1c(F)cccc1F [Cpd 68, 4-[[5-amino-1-[(2,6-difluorophenyl)sulfonyl]-1H-1,2,4-triazol-3-yl]amino]-benzenesulfonamide]
- pIC50 [2]: 5.29
- pIC50 (CDK1:Cyclin-B): 6.18

SMILES: Nc1nc(Nc2ccc(S(N)(=O)=O)cc2)nn1C(=O)c1c(Cl)cc(Cl)cc1Cl [Cpd 8, 4-[[5-amino-1-(2,4,6-trichlorobenzoyl)-1H-1,2,4-triazol-3-yl]amino]-benzenesulfonamide]
- pIC50 [2]: < 4.00
- pIC50 (CDK1:Cyclin-B): 6.87

SMILES: Nc1nc(Nc2ccc(S(N)(=O)=O)cc2)nn1C(=O)c1ccccc1 [Cpd 12, 4-[(5-amino-1-benzoyl-1H-1,2,4-triazol-3-yl)amino]-benzenesulfonamide]
- pIC50 [2]: 7.08
- pIC50 (CDK1:Cyclin-B): 7.34

SMILES: Nc1nc(Nc2ccc(S(N)(=O)=O)cc2)nn1C(=O)c1csnn1 [Cpd 37, 4-[[5-amino-1-(1,2,3-thiadiazol-4-ylcarbonyl)-1H-1,2,4-triazol-3-yl]amino]-benzenesulfonamide]
- pIC50 [2]: 4.26
- pIC50 (CDK1:Cyclin-B): 4.98

SMILES: Nc1nc(Nc2ccc(S(N)(=O)=O)cc2)nn1C(=O)Cc1c(F)cccc1F [Cpd 43, 4-[[5-amino-1-[(2,6-difluorophenyl)acetyl]-1H-1,2,4-triazol-3-yl]amino]-benzenesulfonamide]
- pIC50 [2]: 6.20
- pIC50 (CDK1:Cyclin-B): 7.06

SMILES: Nc1nc(Nc2ccc(S(N)(=O)=O)cc2)nn1C(=O)c1c(Cl)cccc1Cl [Cpd 7, 4-[[5-amino-1-(2,6-dichlorobenzoyl)-1H-1,2,4-triazol-3-yl]amino]-benzenesulfonamide]
- pIC50 [2]: < 5.00
- pIC50 (CDK1:Cyclin-B): 7.24

SMILES: Cc1nnsc1C(=O)n1nc(Nc2ccc(S(N)(=O)=O)cc2)nc1N [Cpd 36, 4-[[5-amino-1-[(4-methyl-1,2,3-thiadiazol-5-yl)carbonyl]-1H-1,2,4-triazol-3-yl]amino]-benzenesulfonamide]
- pIC50 [2]: 4.73
- pIC50 (CDK1:Cyclin-B): 5.81

SMILES: Nc1nc(Nc2ccc(S(N)(=O)=O)cc2)nn1C(=O)c1c(F)cccc1C(F)(F)F [Cpd 6, 4-[[5-amino-1-[2-fluoro-6-(trifluoromethyl)benzoyl]-1H-1,2,4-triazol-3-yl]amino]-benzenesulfonamide]
- pIC50 [2]: 5.09
- pIC50 (CDK1:Cyclin-B): 7.40

More lines, in order of rising pIC50 [2], values ahead:

- pIC50 [1]: 5.21
- pIC50 [2]: 4.85
- pIC50 (CDK1:Cyclin-B): 6.26
SMILES: Nc1nc(Nc2ccc(S(N)(=O)=O)cc2)nn1C(=O)c1c(F)ccc([N+](=O)[O-])c1F [Cpd 54, 4-[[5-amino-1-(2,6-difluoro-3-nitrobenzoyl)-1H-1,2,4-triazol-3-yl]amino]-benzenesulfonamide]

- pIC50 [2]: 4.88
- pIC50 (CDK1:Cyclin-B): 6.01
SMILES: Nc1nc(Nc2ccc(S(N)(=O)=O)cc2)nn1C(=O)c1cccnc1 [Cpd 28, 4-[[5-amino-1-(3-pyridinylcarbonyl)-1H-1,2,4-triazol-3-yl]amino]-benzenesulfonamide]

- pIC50 [1]: ~6.00
- pIC50 [2]: 6.14
- pIC50 (CDK1:Cyclin-B): 6.34
SMILES: Nc1nc(Nc2ccc(-n3ccnc3)cc2)nn1C(=O)c1c(F)cccc1F [Cpd 93, 1-(2,6-difluorobenzoyl)-N^3-[4-(1H-imidazol-1-yl)phenyl]-1H-1,2,4-triazole-3,5-diamine]

- pIC50 [1]: 4.79
- pIC50 [2]: 6.15
- pIC50 (CDK1:Cyclin-B): 7.06
SMILES: Cc1ccc(F)c(C(=O)n2nc(Nc3ccc(NS(C)(=O)=O)cc3)nc2N)c1F [Cpd 112]

- pIC50 [1]: 6.09
- pIC50 [2]: 6.19
- pIC50 (CDK1:Cyclin-B): 6.85
SMILES: Cc1ccc(F)c(C(=O)n2nc(Nc3ccc(-n4cnnc4)cc3)nc2N)c1F [Cpd 101, 1-(2,6-difluoro-3-methylbenzoyl)-N^3-[4-(4H-1,2,4-triazol-4-yl)phenyl]-1H-1,2,4-triazole-3,5-diamine]

- pIC50 [2]: 6.45
- pIC50 (CDK1:Cyclin-B): 7.86
SMILES: Nc1nc(Nc2ccc(S(N)(=O)=O)cc2)nn1C(=O)C1CCCCCC1 [Cpd 45, 4-[[5-amino-1-(cycloheptylcarbonyl)-1H-1,2,4-triazol-3-yl]amino]-benzenesulfonamide]

- pIC50 [2]: 6.48
- pIC50 (CDK1:Cyclin-B): 8.10
SMILES: Nc1nc(Nc2ccc(S(N)(=O)=O)cc2)nn1C(=O)c1c(F)ccc(F)c1F [Cpd 3, 4-[[5-amino-1-(2,3,6-trifluorobenzoyl)-1H-1,2,4-triazol-3-yl]amino]-benzenesulfonamide]

- pIC50 [1]: 6.70
- pIC50 [2]: 6.72
- pIC50 (CDK1:Cyclin-B): 6.92
SMILES: Nc1nc(Nc2ccc(S(N)(=O)=O)cc2)nn1C(=O)c1sccc1-n1cccc1 [Cpd 50, 4-[[5-amino-1-[[3-(1H-pyrrol-1-yl)-2-thienyl]carbonyl]-1H-1,2,4-triazol-3-yl]amino]-benzenesulfonamide]

- pIC50 [1]: ~7.00
- pIC50 [2]: ~7.00
- pIC50 (CDK1:Cyclin-B): < 7.00
SMILES: Cc1cc(C)c(C(=O)n2nc(Nc3ccc(-n4cncn4)cc3)nc2N)s1 [Cpd 98, 1-[(3,5-dimethyl-2-thienyl)carbonyl]-N^3-[4-(1H-1,2,4-triazol-1-yl)phenyl]-1H-1,2,4-triazole-3,5-diamine]
